# Test results as given in patent US9999704B2, “Amphiphilic degradable polymers for immobilization and sustained delivery of biomolecules” (University of Massachusetts, priority 2014, dated 2018).
# System: Human umbilical vein endothelial cells (HUVECs)
# Assay: HUVEC-Matrigel tube formation assay
# Format: cell-based
# Details: free S1P solution, 17 h
# Method: The electrospun meshes were punched into circles of 6.3 mm in diameter, weighed and sterilized with UV irradiation (254 nm, 1 h for each side). Fresh S1P solutions in PBS were carefully loaded onto each mesh (for S1P release study: 5 μL of 0.76-μg/μL solution to achieve 3.8-μg S1P loading per mesh; for tube formation assay: 2 or 10 μL of 0.19-μg/μL solution to achieve 0.38-μg or 1.90-μg S1P loading per mesh). The S1P-loaded meshes were incubated at 37° C. for 1 h and 4° C. for another 4 h before they were air-dried in laminar flow hood overnight.
# Human umbilical vein endothelial cells (HUVECs, ATCC, passage 6), were cultured on gelatin-coated plates in M199 medium with 20% fetal bovine serum (FBS), 3 ng/mL bFGF, 5 units/mL heparin and 100 U/100 μg/mL Pen/Strep at 37° C. under 5% CO2. The 96-well culture plate was coated with 50 μL/well growth factor reduced Matrigel and incubated at 37° C. for 0.5 h to allow Matrigel to solidify. Then HUVECs suspended in 100 μL of M199 medium with 0.1% FBS and 100 U/100 μg/mL Pen/Strep were seeded on the Matrigel at 2×10^4 cells/well. After 30 min of cell attachment, PBS solutions of S1P or S1P-loaded meshes were carefully added to each well, followed by continued incubation at 37° C. for 17 h. After removing the meshes and culture media, the HUVECs were fixed with 10% formalin saline solution and imaged with an Axiovert 40 CFL microscope equipped with a QImaging camera at 25× and 100× magnifications. The total tube length in each well (n=3-4) was quantified by ImageJ (NIH).
smiles,measurement,setting,value
"CCCCCCCCCCCCC/C=C/[C@@H](O)[C@@H](N)COP(=O)(O)O [S1P, Sphingosine-1-phosphate]",total tube length,"1-μM, no polymer carrier",increased
same,total tube length,"10-μM, no polymer carrier",proangiogenic effect was compromised
same,total tube length,"50-μM, vs. no-S1P control",significantly inhibited tube formation
